{"source": "patent US11865098B1", "about": "“Methods and compositions for treating excessive sleepiness” (Axsome Malta Ltd., priority 2017, dated 2024)", "key": {"[1]": {"tested_on": "adult patients with OSA and ES", "experiment": "MWT, 12-week placebo-controlled parallel study in OSA", "assay_type": "in vivo, human", "settings": "mITT", "description": "The MWT is an objective test used to measure how alert a subject is during the day. The test consists of four sleep trials with two hours in between the trials. The first trial is performed 1.5-3 hours after the subject's normal wake-up time. Sensors are placed on the head, face, and chin to detect when the subject is asleep and awake during the test. The subject sits quietly in bed with his or her back and head supported by a pillow and is asked to sit still and look straight ahead while trying to stay awake as long as possible. Each trial lasts 40 minutes or until the subject is asleep for 90 seconds. Between trials, the subject stays out of bed and occupies himself or herself to remain awake. Falling asleep in an average of less than eight minutes is considered abnormal. About 40-60% of subjects with normal sleep stay awake for the entire 40 minutes of all four trials.\nThe study was a 12-week, double-blind, placebo-controlled, parallel design study as described in greater detail in Example 1 (Schweitzer et al., Sleep 40(Abstract Supplement):A237. Abstract 0641 (2017)). Patients were randomized (1:1:2:2:2) to APC 37.5, 75, 150, 300 mg, or placebo for 12 weeks, and were stratified by adherence or non-adherence with primary OSA therapy (adherent definition was use for ≥4 hours per night on >70% of nights). Two patient-reported measures were included as secondary efficacy outcomes to evaluate the effects of APC on functional status and work productivity and activity impairment at baseline and weeks 1, 4, 8, and 12. The Functional Outcomes of Sleep questionnaire short version (FOSQ-10) (Chasens et al., Sleep 32(7):915 (2009)) evaluated the effects of ES on functioning. The Work Productivity and Activity Impairment questionnaire for Specific Health Problems (WPAI:SHP) (Reilly et al., Pharmacoeconomics 4(5):353 (1993); Reilly, Work Productivity and Activity Impairment Questionnaire: Specific Health Problem V2.0 (WPAI: SHP). www.reillyassociates.net/WPAI_SHP) evaluated work productivity impairment among employed patients and overall activity impairment outside of work among all patients for the past 7 days. Four outcomes are available from the WPAI:SHP: Absenteeism (percent work time missed due to health); Presenteeism (percent impairment while working due to health); Percent overall work impairment (calculated from absenteeism and presenteeism); and Percent activity impairment due to health. The FOSQ-10 was evaluated as change over time compared with placebo (least squares (LS) mean); the 4 WPAI outcomes were evaluated at week 12 compared to placebo. Efficacy analyses were based on the modified intent-to-treat population (mITT) and there was no multiplicity adjustment for the FOSQ-10 or WPAI:SHP. Safety and tolerability were assessed based on treatment-emergent adverse events (TEAEs), vital signs, electrocardiogram test, physical exams, Columbia-Suicide Severity Rating Scale, and laboratory tests in the safety population.\nThis was a 12-week, double-blind, placebo-controlled, parallel-design study. Patients were randomized (1:1:2:2:2) to APC 37.5 mg, 75 mg, 150 mg, or 300 mg, or placebo for 12 weeks, and were stratified by adherence or nonadherence with primary OSA therapy."}, "[2]": {"tested_on": "adult patients with OSA and ES", "experiment": "PGI-C, 12-week placebo-controlled parallel study in OSA", "assay_type": "in vivo, human", "settings": "37.5, 75, 150, 300 mg; week 12; listed as APC", "description": "The study was a 12-week, double-blind, placebo-controlled, parallel design study as described in greater detail in Example 1 (Schweitzer et al., Sleep 40(Abstract Supplement):A237. Abstract 0641 (2017)). Patients were randomized (1:1:2:2:2) to APC 37.5, 75, 150, 300 mg, or placebo for 12 weeks, and were stratified by adherence or non-adherence with primary OSA therapy (adherent definition was use for ≥4 hours per night on >70% of nights). Two patient-reported measures were included as secondary efficacy outcomes to evaluate the effects of APC on functional status and work productivity and activity impairment at baseline and weeks 1, 4, 8, and 12. The Functional Outcomes of Sleep questionnaire short version (FOSQ-10) (Chasens et al., Sleep 32(7):915 (2009)) evaluated the effects of ES on functioning. The Work Productivity and Activity Impairment questionnaire for Specific Health Problems (WPAI:SHP) (Reilly et al., Pharmacoeconomics 4(5):353 (1993); Reilly, Work Productivity and Activity Impairment Questionnaire: Specific Health Problem V2.0 (WPAI: SHP). www.reillyassociates.net/WPAI_SHP) evaluated work productivity impairment among employed patients and overall activity impairment outside of work among all patients for the past 7 days. […]"}, "[3]": {"settings": "Week 12, Combined JZP-110 doses"}}, "data": [{"molecule": "NC(=O)OC[C@H](N)Cc1ccccc1", "note": "[JZP-110, (R)-2-amino-3-phenylpropyl carbamate]", "values": [{"measurement": "MWT mean sleep latency increase from baseline >=20 minutes, subjects", "setting": "[1]; Week 4, 150 mg", "value": "26 (24.1) n (%)"}, {"measurement": "MWT mean sleep latency increase from baseline >=25 minutes, subjects", "setting": "[1]; Week 4, 150 mg", "value": "13 (12.0) n (%)"}, {"measurement": "MWT mean sleep latency increase from baseline >=30 minutes, subjects", "setting": "[1]; Week 4, 150 mg", "value": "3 (2.8) n (%)"}, {"measurement": "MWT mean sleep latency increase from baseline >=5 minutes, subjects", "setting": "[1]; Week 4, 300 mg", "value": "79 (78.2) n (%)"}, {"measurement": "MWT mean sleep latency increase from baseline >=10 minutes, subjects", "setting": "[1]; Week 4, 300 mg", "value": "63 (62.4) n (%)"}, {"measurement": "MWT mean sleep latency increase from baseline >=15 minutes, subjects", "setting": "[1]; Week 4, 300 mg", "value": "47 (46.5) n (%)"}, {"measurement": "MWT mean sleep latency increase from baseline >=20 minutes, subjects", "setting": "[1]; Week 4, 300 mg", "value": "32 (31.7) n (%)"}, {"measurement": "MWT mean sleep latency increase from baseline >=25 minutes, subjects", "setting": "[1]; Week 4, 300 mg", "value": "15 (14.9) n (%)"}, {"measurement": "MWT mean sleep latency increase from baseline >=30 minutes, subjects", "setting": "[1]; Week 4, 300 mg", "value": "5 (5.0) n (%)"}, {"measurement": "MWT mean sleep latency increase from baseline >=5 minutes, subjects", "setting": "[1]; Week 4, Combined JZP-110 doses", "value": "217 (69.1) n (%)"}, {"measurement": "MWT mean sleep latency increase from baseline >=10 minutes, subjects", "setting": "[1]; Week 4, Combined JZP-110 doses", "value": "158 (50.3) n (%)"}, {"measurement": "MWT mean sleep latency increase from baseline >=15 minutes, subjects", "setting": "[1]; Week 4, Combined JZP-110 doses", "value": "105 (33.4) n (%)"}, {"measurement": "MWT mean sleep latency increase from baseline >=20 minutes, subjects", "setting": "[1]; Week 4, Combined JZP-110 doses", "value": "67 (21.3) n (%)"}, {"measurement": "MWT mean sleep latency increase from baseline >=25 minutes, subjects", "setting": "[1]; Week 4, Combined JZP-110 doses", "value": "30 (9.6) n (%)"}, {"measurement": "MWT mean sleep latency increase from baseline >=30 minutes, subjects", "setting": "[1]; Week 4, Combined JZP-110 doses", "value": "9 (2.9) n (%)"}, {"measurement": "MWT mean sleep latency increase from baseline >=5 minutes, subjects", "setting": "[1]; Week 12, 37.5 mg", "value": "18 (36.7) n (%)"}, {"measurement": "MWT mean sleep latency increase from baseline >=10 minutes, subjects", "setting": "[1]; Week 12, 37.5 mg", "value": "16 (32.7) n (%)"}, {"measurement": "MWT mean sleep latency increase from baseline >=15 minutes, subjects", "setting": "[1]; Week 12, 37.5 mg", "value": "10 (20.4) n (%)"}, {"measurement": "MWT mean sleep latency increase from baseline >=20 minutes, subjects", "setting": "[1]; Week 12, 37.5 mg", "value": "5 (10.2) n (%)"}, {"measurement": "MWT mean sleep latency increase from baseline >=25 minutes, subjects", "setting": "[1]; Week 12, 37.5 mg", "value": "0 n (%)"}, {"measurement": "MWT mean sleep latency increase from baseline >=30 minutes, subjects", "setting": "[1]; Week 12, 37.5 mg", "value": "0 n (%)"}, {"measurement": "MWT mean sleep latency increase from baseline >=5 minutes, subjects", "setting": "[1]; Week 12, 75 mg", "value": "35 (64.8) n (%)"}, {"measurement": "MWT mean sleep latency increase from baseline >=10 minutes, subjects", "setting": "[1]; Week 12, 75 mg", "value": "25 (46.3) n (%)"}, {"measurement": "MWT mean sleep latency increase from baseline >=15 minutes, subjects", "setting": "[1]; Week 12, 75 mg", "value": "15 (27.8) n (%)"}, {"measurement": "MWT mean sleep latency increase from baseline >=20 minutes, subjects", "setting": "[1]; Week 12, 75 mg", "value": "7 (13.0) n (%)"}, {"measurement": "MWT mean sleep latency increase from baseline >=25 minutes, subjects", "setting": "[1]; Week 12, 75 mg", "value": "3 (5.6) n (%)"}, {"measurement": "MWT mean sleep latency increase from baseline >=30 minutes, subjects", "setting": "[1]; Week 12, 75 mg", "value": "1 (1.9) n (%)"}, {"measurement": "MWT mean sleep latency increase from baseline >=5 minutes, subjects", "setting": "[1]; Week 12, 150 mg", "value": "71 (67.6) n (%)"}, {"measurement": "MWT mean sleep latency increase from baseline >=10 minutes, subjects", "setting": "[1]; Week 12, 150 mg", "value": "53 (50.5) n (%)"}, {"measurement": "MWT mean sleep latency increase from baseline >=15 minutes, subjects", "setting": "[1]; Week 12, 150 mg", "value": "39 (37.1) n (%)"}, {"measurement": "MWT mean sleep latency increase from baseline >=20 minutes, subjects", "setting": "[1]; Week 12, 150 mg", "value": "26 (24.8) n (%)"}, {"measurement": "MWT mean sleep latency increase from baseline >=25 minutes, subjects", "setting": "[1]; Week 12, 150 mg", "value": "13 (12.4) n (%)"}, {"measurement": "MWT mean sleep latency increase from baseline >=30 minutes, subjects", "setting": "[1]; Week 12, 150 mg", "value": "0 n (%)"}, {"measurement": "MWT mean sleep latency increase from baseline >=5 minutes, subjects", "setting": "[1]; Week 12, 300 mg", "value": "69 (75.0) n (%)"}, {"measurement": "MWT mean sleep latency increase from baseline >=10 minutes, subjects", "setting": "[1]; Week 12, 300 mg", "value": "60 (65.2) n (%)"}, {"measurement": "MWT mean sleep latency increase from baseline >=15 minutes, subjects", "setting": "[1]; Week 12, 300 mg", "value": "40 (43.5) n (%)"}, {"measurement": "MWT mean sleep latency increase from baseline >=20 minutes, subjects", "setting": "[1]; Week 12, 300 mg", "value": "26 (28.3) n (%)"}, {"measurement": "MWT mean sleep latency increase from baseline >=25 minutes, subjects", "setting": "[1]; Week 12, 300 mg", "value": "12 (13.0) n (%)"}, {"measurement": "MWT mean sleep latency increase from baseline >=30 minutes, subjects", "setting": "[1]; Week 12, 300 mg", "value": "6 (6.5) n (%)"}, {"measurement": "MWT mean sleep latency increase from baseline >=5 minutes, subjects", "setting": "[1]; [3]", "value": "193 (64.3) n (%)"}, {"measurement": "MWT mean sleep latency increase from baseline >=10 minutes, subjects", "setting": "[1]; [3]", "value": "154 (51.3) n (%)"}, {"measurement": "MWT mean sleep latency increase from baseline >=15 minutes, subjects", "setting": "[1]; [3]", "value": "104 (34.7) n (%)"}, {"measurement": "MWT mean sleep latency increase from baseline >=20 minutes, subjects", "setting": "[1]; [3]", "value": "64 (21.3) n (%)"}, {"measurement": "MWT mean sleep latency increase from baseline >=25 minutes, subjects", "setting": "[1]; [3]", "value": "28 (9.3) n (%)"}, {"measurement": "MWT mean sleep latency increase from baseline >=30 minutes, subjects", "setting": "[1]; [3]", "value": "7 (2.3) n (%)"}, {"measurement": "Key secondary endpoint, PGI-C", "setting": "[2]", "value": "met at all doses except for APC 37.5 mg"}]}]}
